Laboratory results reported in ChEMBL document CHEMBL2177025, “Chemical proteomics-based analysis of off-target binding profiles for rosiglitazone and pioglitazone: clues for assessing potential for cardiotoxicity” (J Med Chem, 2012).
Calls of active or inactive are those of the source. The rule behind the calls is not given here.

Columns and labels:
Dystonin (Mus musculus) = Dystonin (Mus musculus) (UniProt Q91ZU6); test: Binding affinity to mouse bullous pemphigoid antigen 1 by chromatographic analysis
[1] = target: H(+)/Cl(-) exchange transporter 6 (Mus musculus) (UniProt O35454); test: Binding affinity to mouse chloride channel protein 6 after 15 mins by chromatographic analysis
[2] = target: T1, Dihydrolipoyl dehydrogenase, mitochondrial (Mus musculus) (UniProt O08749); test: Binding affinity to mouse mitochondrial dihydrolipoyl dehydrogenase by chromatographic analysis relative to rosiglitazone
T1 sequence (whole entry): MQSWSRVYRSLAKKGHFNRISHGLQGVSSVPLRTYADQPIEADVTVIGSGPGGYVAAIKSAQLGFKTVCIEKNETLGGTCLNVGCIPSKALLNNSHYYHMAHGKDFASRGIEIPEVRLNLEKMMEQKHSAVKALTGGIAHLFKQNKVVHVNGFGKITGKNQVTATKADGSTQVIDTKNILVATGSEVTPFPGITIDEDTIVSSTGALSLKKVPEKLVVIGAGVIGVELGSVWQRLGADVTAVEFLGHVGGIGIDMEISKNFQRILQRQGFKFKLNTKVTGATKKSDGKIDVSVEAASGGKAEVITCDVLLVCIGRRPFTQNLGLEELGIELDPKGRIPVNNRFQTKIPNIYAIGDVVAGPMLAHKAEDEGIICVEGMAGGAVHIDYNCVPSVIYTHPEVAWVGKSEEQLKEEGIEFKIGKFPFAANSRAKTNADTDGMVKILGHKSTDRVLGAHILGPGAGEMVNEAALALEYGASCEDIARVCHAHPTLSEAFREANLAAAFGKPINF

[3] = target: Sodium-dependent multivitamin transporter (Rattus norvegicus) (UniProt O70247); test: Binding affinity to sodium-dependent multivitamin transporter in Sprague-Dawley rat heart homogenate after 15 mins by chromatographic analysis; format: tissue-based
[4] = target: Voltage-dependent L-type calcium channel subunit alpha-1F (Mus musculus) (UniProt Q9JIS7); test: Binding affinity to mouse voltage-dependent L-type calcium channel alpha-1F subunit by chromatographic analysis
[5] = target: Serine/threonine-protein kinase MAK (Mus musculus) (UniProt Q04859); test: Binding affinity to mouse serine/threonine-protein kinase MAK by chromatographic analysis
[6] = target: Kalirin (Rattus norvegicus) (UniProt P97924); test: Binding affinity to Huntingtin-associated protein-interacting protein in Sprague-Dawley rat heart homogenate after 15 mins by chromatographic analysis; format: tissue-based
[7] = target: Protein-tyrosine kinase 2-beta (Rattus norvegicus) (UniProt P70600); test: Binding affinity to focal adhesion kinase 2 in Sprague-Dawley rat heart homogenate after 15 mins by chromatographic analysis; format: tissue-based
[8] = target: Afadin- and alpha-actinin-binding protein (Rattus norvegicus) (UniProt Q8CGZ2); test: Binding affinity to afadin- and alpha-actinin-binding protein in Sprague-Dawley rat heart homogenate after 15 mins by chromatographic analysis; format: tissue-based
Norrin (Mus musculus) = Norrin (Mus musculus) (UniProt P48744); test: Binding affinity to mouse norrin precursor by chromatographic analysis
[9] = target: 26S proteasome non-ATPase regulatory subunit 1 (Rattus norvegicus) (UniProt O88761); test: Binding affinity to 26S proteasome non-ATPase regulatory subunit 1 in Sprague-Dawley rat heart homogenate after 15 mins by chromatographic analysis; format: tissue-based
[10] = target: Multiple PDZ domain protein (Mus musculus) (UniProt Q8VBX6); test: Binding affinity to mouse multiple PDZ domain protein by chromatographic analysis
[11] = target: Importin-7 (Mus musculus) (UniProt Q9EPL8); test: Binding affinity to mouse importin-7 by chromatographic analysis
[12] = target: ATP synthase F(1) complex catalytic subunit beta, mitochondrial (Rattus norvegicus) (UniProt P10719); test: Binding affinity to mitochondrial ATP synthase beta chain in Sprague-Dawley rat heart homogenate after 15 mins by chromatographic analysis; format: tissue-based
[13] = target: Transcription factor SOX-5 (Mus musculus) (UniProt P35710); test: Binding affinity to mouse transcription factor SOX-5 after 15 mins by chromatographic analysis
[14] = target: T2, Long-chain specific acyl-CoA dehydrogenase, mitochondrial (Rattus norvegicus) (UniProt P15650); test: Binding affinity to mitochondrial long-chain specific acyl-CoA dehydrogenase in Sprague-Dawley rat heart homogenate after 15 mins by chromatographic analysis relative to rosiglitazone; format: tissue-based
T2 sequence (whole entry): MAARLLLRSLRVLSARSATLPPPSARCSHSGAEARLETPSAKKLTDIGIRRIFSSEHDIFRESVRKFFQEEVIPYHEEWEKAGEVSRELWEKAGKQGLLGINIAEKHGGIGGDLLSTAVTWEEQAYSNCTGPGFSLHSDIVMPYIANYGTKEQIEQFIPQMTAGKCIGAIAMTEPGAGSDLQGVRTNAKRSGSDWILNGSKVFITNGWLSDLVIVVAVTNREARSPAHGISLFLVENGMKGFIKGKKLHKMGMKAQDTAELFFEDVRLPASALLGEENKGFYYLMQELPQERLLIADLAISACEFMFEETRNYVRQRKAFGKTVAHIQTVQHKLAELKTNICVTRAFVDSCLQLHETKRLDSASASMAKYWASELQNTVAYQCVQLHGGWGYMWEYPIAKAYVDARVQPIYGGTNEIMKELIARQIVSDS

[15] = target: Endoplasmic reticulum membrane adapter protein XK (Mus musculus) (UniProt Q9QXY7); test: Binding affinity to mouse membrane transport protein XK by chromatographic analysis relative to pioglitazone
[16] = target: Serine/threonine-protein kinase WNK1 (Mus musculus) (UniProt P83741); test: Binding affinity to mouse serine/threonine-protein kinase WNK1 by chromatographic analysis relative to rosiglitazone
[17] = target: Neuronal acetylcholine receptor subunit alpha-10 (Rattus norvegicus) (UniProt Q9JLB5); test: Binding affinity to neuronal acetylcholine receptor subunit alpha-10 in Sprague-Dawley rat heart homogenate after 15 mins by chromatographic analysis; format: tissue-based
[18] = target: T3, Cardiotrophin-like cytokine factor 1 (Mus musculus) (UniProt Q9QZM3); test: Binding affinity to mouse cardiotrophin-like cytokine factor 1 by chromatographic analysis
T3 sequence (whole entry): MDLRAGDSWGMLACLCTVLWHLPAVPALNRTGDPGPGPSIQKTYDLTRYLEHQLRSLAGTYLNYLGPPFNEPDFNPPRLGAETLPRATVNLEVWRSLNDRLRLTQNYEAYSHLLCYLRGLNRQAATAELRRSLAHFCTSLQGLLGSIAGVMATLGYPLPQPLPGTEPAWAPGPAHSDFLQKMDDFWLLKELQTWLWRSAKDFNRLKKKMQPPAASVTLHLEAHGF

[19] = target: Trace amine-associated receptor 7b (Mus musculus) (UniProt Q5QD11); test: Binding affinity to mouse trace amine-associated receptor 7b by chromatographic analysis
[20] = target: Protein kinase C and casein kinase substrate in neurons protein 2 (Mus musculus) (UniProt Q9WVE8); test: Binding affinity to mouse protein kinase C and casein kinase substrate in neurons protein 2 by chromatographic analysis
[21] = target: Dynactin subunit 1 (Mus musculus) (UniProt O08788); test: Binding affinity to mouse dynactin-1 by chromatographic analysis
[22] = target: PX domain-containing protein kinase-like protein (Rattus norvegicus) (UniProt Q4FZZ1); test: Binding affinity to PX domain-containing protein kinase-like protein in Sprague-Dawley rat heart homogenate after 15 mins by chromatographic analysis relative to pioglitazone; format: tissue-based

Sequence of Norrin (Mus musculus) (P48744 whole entry): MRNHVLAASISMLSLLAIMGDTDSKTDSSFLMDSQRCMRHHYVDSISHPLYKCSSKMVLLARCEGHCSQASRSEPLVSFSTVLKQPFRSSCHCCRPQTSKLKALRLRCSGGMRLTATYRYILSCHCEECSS
Sequence of Protein-tyrosine kinase 2-beta (Rattus norvegicus) (P70600 whole entry): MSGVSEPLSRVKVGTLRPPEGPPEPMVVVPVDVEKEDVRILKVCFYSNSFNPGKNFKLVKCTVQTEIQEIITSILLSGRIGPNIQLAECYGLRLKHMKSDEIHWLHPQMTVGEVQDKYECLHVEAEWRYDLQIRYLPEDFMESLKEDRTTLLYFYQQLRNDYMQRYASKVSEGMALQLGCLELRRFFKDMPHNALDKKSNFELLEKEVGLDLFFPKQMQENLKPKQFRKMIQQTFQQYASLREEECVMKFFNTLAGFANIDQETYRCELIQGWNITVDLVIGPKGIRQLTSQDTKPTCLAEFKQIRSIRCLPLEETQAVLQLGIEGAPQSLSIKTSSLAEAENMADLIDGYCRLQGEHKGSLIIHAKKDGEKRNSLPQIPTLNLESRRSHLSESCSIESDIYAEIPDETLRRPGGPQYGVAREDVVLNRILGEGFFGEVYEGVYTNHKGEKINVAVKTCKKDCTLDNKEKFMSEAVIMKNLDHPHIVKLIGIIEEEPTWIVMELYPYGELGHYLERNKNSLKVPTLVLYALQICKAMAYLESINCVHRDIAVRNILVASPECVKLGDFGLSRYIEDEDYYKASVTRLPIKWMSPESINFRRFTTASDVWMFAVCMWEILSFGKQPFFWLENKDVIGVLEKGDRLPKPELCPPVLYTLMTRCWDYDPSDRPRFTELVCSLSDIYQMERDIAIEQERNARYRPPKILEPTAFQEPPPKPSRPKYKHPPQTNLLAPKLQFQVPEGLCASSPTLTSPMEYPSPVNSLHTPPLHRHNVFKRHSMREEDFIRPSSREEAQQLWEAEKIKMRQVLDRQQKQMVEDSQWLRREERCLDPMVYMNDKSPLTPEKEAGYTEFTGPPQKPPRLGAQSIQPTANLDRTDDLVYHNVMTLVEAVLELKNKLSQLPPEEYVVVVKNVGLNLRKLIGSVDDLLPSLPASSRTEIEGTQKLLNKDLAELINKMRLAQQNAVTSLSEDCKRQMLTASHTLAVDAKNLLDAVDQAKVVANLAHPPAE
Sequence of Transcription factor SOX-5 (Mus musculus) (P35710 whole entry): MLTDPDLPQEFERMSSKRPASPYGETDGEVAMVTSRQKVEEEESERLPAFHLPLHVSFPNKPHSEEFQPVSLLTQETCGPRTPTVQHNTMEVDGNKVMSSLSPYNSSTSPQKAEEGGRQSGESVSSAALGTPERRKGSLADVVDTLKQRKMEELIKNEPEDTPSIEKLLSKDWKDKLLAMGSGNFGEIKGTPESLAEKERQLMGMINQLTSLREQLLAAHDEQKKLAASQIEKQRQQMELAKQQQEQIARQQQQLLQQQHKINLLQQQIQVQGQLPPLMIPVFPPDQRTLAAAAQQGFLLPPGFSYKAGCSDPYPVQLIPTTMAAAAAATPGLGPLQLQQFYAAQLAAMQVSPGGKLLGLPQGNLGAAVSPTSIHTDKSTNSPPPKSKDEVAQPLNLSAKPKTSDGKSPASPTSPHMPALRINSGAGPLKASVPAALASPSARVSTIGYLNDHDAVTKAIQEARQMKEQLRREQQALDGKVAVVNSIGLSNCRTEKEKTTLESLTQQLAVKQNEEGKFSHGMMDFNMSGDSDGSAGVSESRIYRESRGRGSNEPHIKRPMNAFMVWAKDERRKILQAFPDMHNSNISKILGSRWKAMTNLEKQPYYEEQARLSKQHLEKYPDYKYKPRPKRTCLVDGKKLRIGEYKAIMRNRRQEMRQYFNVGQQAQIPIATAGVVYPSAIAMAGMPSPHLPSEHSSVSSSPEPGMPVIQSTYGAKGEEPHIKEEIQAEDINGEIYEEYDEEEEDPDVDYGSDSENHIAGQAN
Sequence of Voltage-dependent L-type calcium channel subunit alpha-1F (Mus musculus) (Q9JIS7 whole entry): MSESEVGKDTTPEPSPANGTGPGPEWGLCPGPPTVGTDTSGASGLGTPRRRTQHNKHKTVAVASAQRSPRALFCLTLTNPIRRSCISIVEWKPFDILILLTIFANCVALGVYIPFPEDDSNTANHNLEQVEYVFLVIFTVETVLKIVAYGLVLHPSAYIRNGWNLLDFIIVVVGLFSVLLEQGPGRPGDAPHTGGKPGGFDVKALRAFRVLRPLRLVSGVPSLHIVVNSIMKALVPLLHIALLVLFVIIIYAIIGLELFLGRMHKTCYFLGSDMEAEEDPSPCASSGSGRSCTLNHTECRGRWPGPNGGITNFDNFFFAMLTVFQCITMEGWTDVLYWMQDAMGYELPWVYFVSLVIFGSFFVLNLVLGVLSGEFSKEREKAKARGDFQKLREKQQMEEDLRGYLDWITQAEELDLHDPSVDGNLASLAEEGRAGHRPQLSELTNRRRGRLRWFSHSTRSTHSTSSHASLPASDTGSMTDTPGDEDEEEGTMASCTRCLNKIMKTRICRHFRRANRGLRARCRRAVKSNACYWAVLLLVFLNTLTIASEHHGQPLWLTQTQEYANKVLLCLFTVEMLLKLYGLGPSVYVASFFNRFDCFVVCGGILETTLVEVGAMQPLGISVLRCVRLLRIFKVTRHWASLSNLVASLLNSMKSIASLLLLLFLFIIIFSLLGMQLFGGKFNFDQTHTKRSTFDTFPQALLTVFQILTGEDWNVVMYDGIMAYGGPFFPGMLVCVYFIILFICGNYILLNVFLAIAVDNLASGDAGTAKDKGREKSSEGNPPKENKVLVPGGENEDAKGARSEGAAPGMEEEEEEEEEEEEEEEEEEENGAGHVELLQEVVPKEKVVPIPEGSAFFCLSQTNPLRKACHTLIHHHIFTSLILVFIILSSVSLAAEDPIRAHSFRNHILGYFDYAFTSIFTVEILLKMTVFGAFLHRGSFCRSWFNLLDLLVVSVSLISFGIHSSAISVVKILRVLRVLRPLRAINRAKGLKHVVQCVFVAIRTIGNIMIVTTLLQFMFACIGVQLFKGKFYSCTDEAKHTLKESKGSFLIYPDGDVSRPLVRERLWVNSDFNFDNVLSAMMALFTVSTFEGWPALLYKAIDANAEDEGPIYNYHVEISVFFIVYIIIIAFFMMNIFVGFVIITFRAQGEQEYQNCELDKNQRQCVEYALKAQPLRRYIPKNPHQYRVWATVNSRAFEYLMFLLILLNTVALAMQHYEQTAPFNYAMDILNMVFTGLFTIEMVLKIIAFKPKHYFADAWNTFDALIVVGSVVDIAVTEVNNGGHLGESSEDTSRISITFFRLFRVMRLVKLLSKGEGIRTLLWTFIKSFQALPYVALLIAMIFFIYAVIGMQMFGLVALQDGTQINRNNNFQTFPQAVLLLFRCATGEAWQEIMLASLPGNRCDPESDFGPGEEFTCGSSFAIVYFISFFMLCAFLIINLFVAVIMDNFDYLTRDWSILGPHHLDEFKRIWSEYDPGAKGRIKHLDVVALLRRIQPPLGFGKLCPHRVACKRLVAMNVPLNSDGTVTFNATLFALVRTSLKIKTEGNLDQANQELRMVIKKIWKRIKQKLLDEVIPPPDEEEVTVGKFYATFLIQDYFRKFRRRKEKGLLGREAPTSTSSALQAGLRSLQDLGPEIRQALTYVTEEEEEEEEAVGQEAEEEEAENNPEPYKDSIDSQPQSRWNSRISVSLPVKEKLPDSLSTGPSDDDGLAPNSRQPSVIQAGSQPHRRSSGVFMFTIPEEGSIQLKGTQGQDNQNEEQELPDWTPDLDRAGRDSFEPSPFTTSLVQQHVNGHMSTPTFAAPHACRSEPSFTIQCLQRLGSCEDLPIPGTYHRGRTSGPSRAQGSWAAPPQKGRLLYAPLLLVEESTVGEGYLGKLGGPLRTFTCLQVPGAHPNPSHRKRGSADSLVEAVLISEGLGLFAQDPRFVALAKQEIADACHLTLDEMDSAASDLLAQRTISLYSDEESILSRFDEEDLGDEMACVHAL
Sequence of ATP synthase F(1) complex catalytic subunit beta, mitochondrial (Rattus norvegicus) (P10719 whole entry, one chain of several): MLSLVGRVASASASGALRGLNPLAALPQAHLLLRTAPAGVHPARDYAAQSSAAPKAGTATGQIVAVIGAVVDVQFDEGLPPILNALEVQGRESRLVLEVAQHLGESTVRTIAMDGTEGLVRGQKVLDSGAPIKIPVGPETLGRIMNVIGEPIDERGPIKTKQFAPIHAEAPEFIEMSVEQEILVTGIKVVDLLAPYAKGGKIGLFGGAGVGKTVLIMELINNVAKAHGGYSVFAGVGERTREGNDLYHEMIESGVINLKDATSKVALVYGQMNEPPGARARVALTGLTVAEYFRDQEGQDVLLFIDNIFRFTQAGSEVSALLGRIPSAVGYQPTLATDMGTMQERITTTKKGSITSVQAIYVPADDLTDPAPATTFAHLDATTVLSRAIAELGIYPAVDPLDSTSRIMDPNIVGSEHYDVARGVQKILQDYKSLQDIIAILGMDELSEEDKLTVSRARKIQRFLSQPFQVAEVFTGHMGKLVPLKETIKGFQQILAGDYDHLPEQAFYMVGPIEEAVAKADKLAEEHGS
Sequence of Serine/threonine-protein kinase MAK (Mus musculus) (Q04859 whole entry): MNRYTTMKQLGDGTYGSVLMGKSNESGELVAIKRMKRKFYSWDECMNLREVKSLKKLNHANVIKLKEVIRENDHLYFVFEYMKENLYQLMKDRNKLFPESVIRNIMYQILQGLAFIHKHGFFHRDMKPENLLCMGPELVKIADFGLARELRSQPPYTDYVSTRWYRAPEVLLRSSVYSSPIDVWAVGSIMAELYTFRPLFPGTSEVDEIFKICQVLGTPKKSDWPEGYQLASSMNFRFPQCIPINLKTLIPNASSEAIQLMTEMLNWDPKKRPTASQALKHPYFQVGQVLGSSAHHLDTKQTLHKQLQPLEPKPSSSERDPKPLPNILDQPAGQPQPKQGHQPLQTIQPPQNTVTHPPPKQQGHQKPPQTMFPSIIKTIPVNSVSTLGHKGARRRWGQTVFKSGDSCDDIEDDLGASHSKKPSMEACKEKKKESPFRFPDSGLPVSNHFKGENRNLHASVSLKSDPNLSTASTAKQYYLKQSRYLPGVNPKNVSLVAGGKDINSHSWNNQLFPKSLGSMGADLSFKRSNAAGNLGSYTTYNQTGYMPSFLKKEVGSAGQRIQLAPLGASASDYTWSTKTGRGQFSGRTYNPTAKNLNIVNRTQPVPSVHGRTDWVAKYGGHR

Activity (Dystonin (Mus musculus)) | Activity [1] | Activity [2] | Activity [3] | Activity [4] | Activity [5] | Activity [6] | Activity [7] | Activity [8] | Activity (Norrin (Mus musculus)) | Activity [9] | Activity [10] | Activity [11] | Activity [12] | Activity [13] | Activity [14] | Activity [17] | Activity [18] | Activity [19] | Activity [20] | SMILES | further results
Active | Active | Active | Active | Active | Active | Active | Active | Active | inactive | Active | Active | Active | Active | Active | Active | Active | Active | Active | inactive | CCc1ccc(CCOc2ccc(CC3SC(=O)NC3=O)cc2)nc1 (stereo not given) | fold change (FC) [2]: 1.88; fold change (FC) [14]: 5.78; Activity [15]: Active; fold change (FC) [16]: 3.24; Activity [21]: Active; Activity [22]: Active
Active | Active | Active | Active | Active | Active | Active | inactive | Active | Active | Active | Active | Active | Active | Active | Active | Active | Active | inactive | Active | CN(CCOc1ccc(CC2SC(=O)NC2=O)cc1)c1ccccn1 (stereo not given) | fold change (FC) [15]: 1.88; Activity [16]: Active; Activity [21]: Active; fold change (FC) [22]: 2.64
